Reference: ChEMBL document CHEMBL2169792, “Synthesis of new 4-thiazolidinone-, pyrazoline-, and isatin-based conjugates with promising antitumor activity” (J Med Chem, 2012)

Key:
Format in all cases: functional
[1] = test system: NCI-H522; test: Cytotoxicity against human NCI-H522 cells assessed as cell growth at 10 uM after 48 hrs by SRB assay; details: NCI-H522, 48 h, read-out: Activity
[2] = test system: U-251; test: Cytotoxicity against human U251 cells assessed as cell growth at 10 uM after 48 hrs by SRB assay; details: U-251, 48 h, read-out: Activity
[3] = Cytotoxicity against human breast cancer cells after 48 hrs by SRB assay; details: Cancer cell lines
[4] = Cytotoxicity against human colon cancer cells after 48 hrs by SRB assay; details: Cancer cell lines
[5] = Cytotoxicity against human ovarian cancer cells after 48 hrs by SRB assay; details: Cancer cell lines
[6] = Cytotoxicity against human leukemia cells after 48 hrs by SRB assay; details: Leukemia cell; for CC50: read-out: LC50 (the source's name)
[7] = Cytotoxicity against human CNS cancer cells after 48 hrs by SRB assay; details: Cancer cell lines
[8] = Cytotoxicity against human non-small cell lung cancer cells after 48 hrs by SRB assay; details: Cancer cell lines; for CC50: read-out: LC50 (the source's name)
[9] = Cytotoxicity against human melanoma cells after 48 hrs by SRB assay; details: Melanoma cell; for CC50: read-out: LC50 (the source's name)
[10] = Cytotoxicity against human renal cancer cells after 48 hrs by SRB assay; details: Cancer cell lines
[11] = Cytotoxicity against human prostate cancer cells after 48 hrs by SRB assay; details: Cancer cell lines

Structure (SMILES)	growth at 10 µM [1]	GI50 [3]	LC50 (concentration causing 50% net cell kill) [3]	TGI [3]	GI50 [4]	LC50 (concentration lethal to 50% of cells) [4]	TGI [4]	GI50 [5]	LC50 (concentration causing 50% net cell kill) [5]	GI50 [6]	TGI [6]	CC50 [6]	GI50 [7]	LC50 (concentration giving 50% net cell kill) [7]	TGI [7]	GI50 [8]	TGI [8]	CC50 [8]	GI50 [9]	TGI [9]	further results
COc1ccc(-c2cc(-c3ccc(OC)cc3)n(C3C(=O)Nc4ccc(Br)cc43)n2)cc1 (stereo not given)	88.6%																				
Cc1ccc2c(c1)/C(=C1\SC(N3N=C(c4ccccc4)CC3c3ccc(Cl)cc3)=NC1=O)C(=O)N2 (stereo not given)		0.8 µM	100 µM	100 µM	0.23 µM	100 µM	0.35 µM	0.26 µM	100 µM	0.39 µM	39.4 µM	85.2 µM	0.24 µM	75.2 µM	0.32 µM	0.21 µM	0.62 µM	100 µM	0.3 µM	0.67 µM	growth at 10 µM [2]: -54%; CC50 [9]: 100 µM; GI50 [10]: 0.24 µM; LC50 [10]: 100 µM; TGI [10]: 0.52 µM; GI50 [11]: 0.31 µM; LC50 [11]: 100 µM
COc1ccc(C2CC(c3ccc4ccccc4c3)=NN2C2=NC(=O)/C(=C3\C(=O)Nc4ccccc43)S2)cc1 (stereo not given)		5.96 µM	73.7 µM	32.8 µM	1.68 µM	38.3 µM	12.4 µM	0.97 µM	66.9 µM	17.5 µM	59.6 µM	97.5 µM	0.67 µM	48.2 µM	12.6 µM	0.62 µM	4.03 µM	48.7 µM	4.8 µM	27 µM	growth at 10 µM [2]: -26.3%; TGI [5]: 24.2 µM; CC50 [9]: 64.1 µM; GI50 [10]: 0.87 µM; LC50 [10]: 51.3 µM; TGI [10]: 13.6 µM; GI50 [11]: 0.36 µM; LC50 [11]: 100 µM; TGI [11]: 2.47 µM
COc1ccc(-c2cc(-c3ccc(OC)cc3)n(C3C(=O)Nc4ccc(Cl)cc43)n2)cc1 (stereo not given)	82%																				
CN(C)c1ccc(C2CC(c3ccccc3)=NN2C2=NC(=O)/C(=C3\C(=O)Nc4ccc(Br)cc43)S2)cc1 (stereo not given)		0.22 µM	18.7 µM	0.51 µM	0.2 µM	1.22 µM	0.42 µM	0.25 µM	39.6 µM	0.31 µM	1.29 µM	84.8 µM	0.21 µM	12.3 µM	0.45 µM	0.22 µM	0.54 µM	17 µM	0.2 µM	0.46 µM	growth at 10 µM [2]: -51.1%; TGI [5]: 0.69 µM; CC50 [9]: 7.65 µM; GI50 [10]: 0.2 µM; LC50 [10]: 7.47 µM; TGI [10]: 0.45 µM; GI50 [11]: 0.27 µM; LC50 [11]: 55.3 µM; TGI [11]: 0.72 µM
COc1ccc(C2=NN(C3=NC(=O)/C(=C4\C(=O)Nc5ccc(Cl)cc54)S3)C(c3ccc(OC)cc3)C2)cc1 (stereo not given)	0.8%	0.22 µM	75.2 µM	0.5 µM	0.21 µM	58.7 µM	0.43 µM	0.23 µM	83.5 µM	0.28 µM	75.2 µM	100 µM	0.2 µM	35.5 µM	0.42 µM	0.2 µM	0.44 µM	64.2 µM	0.19 µM	0.38 µM	TGI [5]: 21.2 µM; CC50 [9]: 33.9 µM; GI50 [10]: 0.19 µM; LC50 [10]: 50.5 µM; TGI [10]: 0.39 µM; GI50 [11]: 0.25 µM; LC50 [11]: 100 µM; TGI [11]: 0.71 µM
COc1ccc(C2=NN(C3=NC(=O)/C(=C4\C(=O)Nc5ccc(Cl)cc54)S3)C(c3ccc(Cl)cc3)C2)cc1 (stereo not given)		0.2 µM	25.7 µM	0.47 µM	0.21 µM	8.2 µM	0.45 µM	0.27 µM	31.3 µM	0.27 µM	0.89 µM	91.1 µM	0.19 µM	12.7 µM	0.43 µM	0.2 µM	0.46 µM	7.93 µM	0.2 µM	0.44 µM	growth at 10 µM [2]: -58%; TGI [5]: 7.97 µM; CC50 [9]: 1.21 µM; GI50 [10]: 0.2 µM; LC50 [10]: 13.8 µM; TGI [10]: 0.46 µM; GI50 [11]: 0.27 µM; LC50 [11]: 76.2 µM; TGI [11]: 0.74 µM
COc1ccc(C2=NN(C3=NC(=O)/C(=C4\C(=O)Nc5ccccc54)S3)C(c3ccc(OC)cc3)C2)cc1 (stereo not given)		81.5 µM	100 µM	99.6 µM	100 µM	100 µM	100 µM	92.2 µM	100 µM	100 µM	100 µM	100 µM	43.9 µM	100 µM	89.2 µM	88.1 µM	91.5 µM	100 µM	100 µM	100 µM	growth at 10 µM [2]: 44.7%; TGI [5]: 100 µM; CC50 [9]: 100 µM; GI50 [10]: 85.2 µM; LC50 [10]: 100 µM; TGI [10]: 100 µM; GI50 [11]: 100 µM; LC50 [11]: 100 µM; TGI [11]: 100 µM
COc1ccc(C2=NN(C3=NC(=O)/C(=C4\C(=O)N(C)c5ccccc54)S3)C(c3ccc(Cl)cc3)C2)cc1 (stereo not given)	102%																				
COc1ccc(C2=NN(C3=NC(=O)/C(=C4\C(=O)Nc5ccc(Br)cc54)S3)C(c3ccc(OC)cc3)C2)cc1 (stereo not given)		0.21 µM	66.9 µM	0.48 µM	0.2 µM	50.4 µM	25.3 µM	0.24 µM	78.7 µM	0.28 µM	62.7 µM	100 µM	0.2 µM	70.2 µM	0.405 µM	0.2 µM	0.43 µM	75.2 µM	0.19 µM	0.41 µM	growth at 10 µM [2]: 23.9%; TGI [5]: 32.5 µM; CC50 [9]: 17.3 µM; GI50 [10]: 0.2 µM; LC50 [10]: 64.6 µM; TGI [10]: 0.38 µM; GI50 [11]: 0.27 µM; LC50 [11]: 100 µM; TGI [11]: 0.71 µM
O=C1Nc2ccccc2C1n1nc(-c2ccccc2)cc1-c1ccc(Cl)cc1 (stereo not given)	76.6%																				
O=C1Nc2ccccc2C1n1nc(-c2ccc3ccccc3c2)cc1-c1ccc(Cl)cc1 (stereo not given)	90.8%																				
COc1ccc(-c2cc(-c3ccc(OC)cc3)n(C3C(=O)Nc4ccccc43)n2)cc1 (stereo not given)	87.5%																				
